Measured values taken from PMC10535624, “Curcuminoid Chalcones: Synthesis, Stability, and New Neuroprotective and Sonosensitising Activities” (Pharmaceuticals, 2023).

How the values were obtained:
SCC-25 cells = test: Sonodynamic cytotoxicity, MTT test; assay type: cell-based, human; details: 40 µM; for Reduction of viability of SCC-25 cells, compound combined with US: 8 h, then US 3 min, 3 MHz, 0.8 W/cm^2, MTT 6 h later, compared to untreated cells
FaDu cells = test: Sonodynamic cytotoxicity, MTT test; assay type: cell-based, human; details: 40 µM, 8 h, then US 3 min, 3 MHz, 0.8 W/cm^2; MTT 6 h later; compared to untreated cells
Procedure: The cytotoxic effect and sonosensitising properties of selected synthesised chalcone derivatives were evaluated on human SCC-25 tongue and FaDu throat cancer cell lines using the MTT test (Figure 5 and Figure 6).
SCC-25 and FaDu human squamous cell carcinoma cell lines were purchased from the American Type Culture Collection (ATCC). The cells were cultivated in an incubator under optimal culture conditions (temperature: 37 °C; humidity: 95%; carbon dioxide content: 5%). The SCC-25 cell line was cultured in phenol red-free DMEM:F-12 medium complemented with 10% FBS, 2.5 mM L-glutamine, penicillin (100 U/mL), and streptomycin (0.1 mg/mL). The FaDu cells were maintained in phenol red-free Eagle’s Minimum Essential Medium (EMEM) supplemented with 10% fetal bovine serum (FBS), 2.5 mM L-glutamine, penicillin (100 U/mL), and streptomycin (0.1 mg/mL). For the experiments, confluent stock cultures were harvested using the trypsin–EDTA solution and seeded in 35-mm-diameter Petri plates at a density of 1 × 10^6. They were allowed to attach overnight, and the tested compounds were then added at a concentration of 40 µM. Control cells were maintained under the same conditions with 0.1% DMSO. […] The absorbance was measured using an Elx-800 plate reader (BioTek, Bad Friedrichshall, Germany) at 570 nm (reference wavelength 650 nm).

[1] = target: T1, glutathione reductase (GR) (Homo sapiens, UniProt P00390); test: Effect on GR activity; assay type: biochemical; details: samples 3 mM/dm^3 in DMSO; mean ± SEM, n = 3
T1 sequence (P00390 44-522): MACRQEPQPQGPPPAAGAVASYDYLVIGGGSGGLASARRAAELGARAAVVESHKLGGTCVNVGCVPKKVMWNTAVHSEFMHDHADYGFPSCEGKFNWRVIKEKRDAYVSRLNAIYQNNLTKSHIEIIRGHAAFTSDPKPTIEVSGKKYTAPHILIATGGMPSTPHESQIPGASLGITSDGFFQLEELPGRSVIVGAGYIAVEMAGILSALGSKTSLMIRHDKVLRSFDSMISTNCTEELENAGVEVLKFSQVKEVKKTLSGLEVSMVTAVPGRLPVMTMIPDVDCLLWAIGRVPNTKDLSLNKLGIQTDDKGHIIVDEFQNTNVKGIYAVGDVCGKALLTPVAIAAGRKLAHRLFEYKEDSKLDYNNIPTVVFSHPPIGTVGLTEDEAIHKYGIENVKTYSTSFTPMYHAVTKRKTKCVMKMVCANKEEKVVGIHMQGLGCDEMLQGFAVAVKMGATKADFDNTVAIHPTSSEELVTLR
Procedure: (§1) We decided to extend the study by measuring the compounds’ ability to inhibit glutathione reductase (GR) and GPx activities, the human cells’ main endogenous enzymatic defence systems. Therefore, we checked the influence of some curcuminoid chalcones on GR and GPx using in vitro spectroscopic methods (Table 2). Moreover, the effects of curcuminoid chalcones on CAT activity were estimated (Table 2).
(§2) The samples were dissolved in DMSO (Sigma D4540) to obtain a concentration of 3 mM/dm^3.
(§3) The analyses were performed strictly as described by Studzińska-Sroka et al..

[2] = temperatures below 30 °C ref 43; cited from earlier work
[3] = Hydroxyl radical antioxidant capacity (HORAC); details: samples 1 mg/mL DMSO; mean ± SEM, n = 3
COX-2 = target: T2, COX-2 (Homo sapiens, UniProt P35354); test: Effect on COX-2 activity; assay type: biochemical; details: samples 3 mM/dm^3 in DMSO, 0.02 mL; mean ± SEM, n = 3
T2 sequence (P35354 18-604): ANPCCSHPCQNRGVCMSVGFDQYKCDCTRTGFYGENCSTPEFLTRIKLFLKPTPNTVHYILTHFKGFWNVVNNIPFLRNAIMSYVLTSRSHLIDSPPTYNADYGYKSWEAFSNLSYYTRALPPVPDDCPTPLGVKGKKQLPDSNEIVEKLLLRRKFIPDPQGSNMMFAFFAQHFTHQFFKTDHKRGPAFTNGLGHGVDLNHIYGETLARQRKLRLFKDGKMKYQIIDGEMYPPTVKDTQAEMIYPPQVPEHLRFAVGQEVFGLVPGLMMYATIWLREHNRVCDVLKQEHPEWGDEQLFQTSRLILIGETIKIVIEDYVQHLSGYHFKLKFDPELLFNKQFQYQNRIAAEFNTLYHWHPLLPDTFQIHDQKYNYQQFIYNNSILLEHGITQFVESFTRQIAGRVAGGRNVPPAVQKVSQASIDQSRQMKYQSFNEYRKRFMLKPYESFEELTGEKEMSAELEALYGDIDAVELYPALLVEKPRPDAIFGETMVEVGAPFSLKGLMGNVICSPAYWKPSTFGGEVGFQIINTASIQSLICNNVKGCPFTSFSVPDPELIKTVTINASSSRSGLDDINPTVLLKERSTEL

[4] = test system: glutathione peroxidase (GPx); test: Effect on GPx activity; assay type: biochemical; details: samples 3 mM/dm^3 in DMSO; mean ± SEM, n = 3
Procedure: as §1, §2, §3

catalase (CAT) = target: T3, catalase (CAT) (Aspergillus niger, UniProt P55303); test: Effect on CAT activity; assay type: biochemical; details: samples 3 mM/dm^3 in DMSO, 0.01 mL; mean ± SEM, n = 3
T3 construct: purchased Sigma C3515
T3 sequence (P55303 whole entry): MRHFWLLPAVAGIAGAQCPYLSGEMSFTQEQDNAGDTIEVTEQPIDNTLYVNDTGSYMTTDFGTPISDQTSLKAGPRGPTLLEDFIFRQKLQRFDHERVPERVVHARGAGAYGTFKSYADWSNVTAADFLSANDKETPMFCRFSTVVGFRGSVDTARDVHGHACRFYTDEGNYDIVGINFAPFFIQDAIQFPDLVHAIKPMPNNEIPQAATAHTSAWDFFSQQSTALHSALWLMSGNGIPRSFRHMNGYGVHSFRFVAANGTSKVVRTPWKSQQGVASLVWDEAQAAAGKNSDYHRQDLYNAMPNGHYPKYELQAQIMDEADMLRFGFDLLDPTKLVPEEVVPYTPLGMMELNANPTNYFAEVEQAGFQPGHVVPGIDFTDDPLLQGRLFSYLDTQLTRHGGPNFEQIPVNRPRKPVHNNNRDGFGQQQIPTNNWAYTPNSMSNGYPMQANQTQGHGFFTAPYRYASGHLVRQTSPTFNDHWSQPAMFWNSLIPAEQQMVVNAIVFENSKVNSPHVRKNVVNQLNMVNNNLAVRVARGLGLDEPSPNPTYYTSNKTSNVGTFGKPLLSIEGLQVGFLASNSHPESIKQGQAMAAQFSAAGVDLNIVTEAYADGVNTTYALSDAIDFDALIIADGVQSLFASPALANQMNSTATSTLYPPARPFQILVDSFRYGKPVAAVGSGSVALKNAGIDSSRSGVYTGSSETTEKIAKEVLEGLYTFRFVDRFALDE
Procedure: as §2
The method used by Watanabe et al. was used with the following modifications. The reaction mixture was composed of 0.02 mL of EDTA solution (56.5 mM), 0.01 mL of ^the sample, 0.02 mL of 3% H2O2 solution (Sigma H1009), and 0.02 mL of catalase solution (4000-fold diluted, Sigma C3515) (all reagents except the tested sample were diluted in TRIS buffer, pH 7.0, 1 mol/dm^3). The volume was completed to 0.31 mL by the same buffer solution. In a blank sample, DMSO (Sigma D4540) replaced the tested sample. The background of the sample was measured in a mixture composed of 0.01 mL of the sample completed to 0.31 mL by the buffer. The absorbance was read at 240 nm directly after the mixing and after 5 min of incubation (room temperature). The decreased absorbance (depletion of H2O2) in the tested and blank samples was compared. The calibration curve was produced using eleven H2O2 solutions (0.5693–5.693 mM/dm^3). The results are expressed in % inhibition and as H2O2 depletion (mmol of depleted H2O2/dm^3 min).

AChE = AChE (Homo sapiens, UniProt P22303); test: Effect on AChE activity (modified Ellman's method); assay type: biochemical; details: samples 3 mM/dm^3 in DMSO, 0.035 mL; mean ± SEM, n = 3
Chain of AChE (P22303 32-614): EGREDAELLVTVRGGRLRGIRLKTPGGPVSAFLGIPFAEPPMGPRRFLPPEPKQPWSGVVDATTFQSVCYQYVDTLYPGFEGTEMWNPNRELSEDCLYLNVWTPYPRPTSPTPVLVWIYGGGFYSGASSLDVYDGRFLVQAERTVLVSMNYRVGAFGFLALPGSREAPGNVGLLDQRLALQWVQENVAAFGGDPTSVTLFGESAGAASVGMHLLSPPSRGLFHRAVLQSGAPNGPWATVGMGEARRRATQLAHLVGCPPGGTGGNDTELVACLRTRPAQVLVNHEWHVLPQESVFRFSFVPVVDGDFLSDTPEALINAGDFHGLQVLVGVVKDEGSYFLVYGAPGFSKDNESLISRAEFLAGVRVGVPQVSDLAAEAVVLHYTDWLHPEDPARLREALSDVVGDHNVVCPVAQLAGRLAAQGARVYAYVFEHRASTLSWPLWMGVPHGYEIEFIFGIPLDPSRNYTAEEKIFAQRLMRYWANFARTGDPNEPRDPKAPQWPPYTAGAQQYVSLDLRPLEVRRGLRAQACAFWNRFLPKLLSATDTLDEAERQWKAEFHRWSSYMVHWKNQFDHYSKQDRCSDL
Text: Neurodegenerative diseases are associated with the progressive damage of neurons. During the development of these diseases, there is a loss of nerve cells and a deficiency of […], serotonin, and norepinephrine levels. The ability to inhibit acetyl- (AChE) and butyrylcholinesterase (BChE) activities is seen, among others, in organophosphorus compounds, carbamate insecticides, phenoxyacetic pesticides, and hydrogen peroxide, as well as aliphatic ketones with the carbons C4–C9, e.g., 2,5-hexandione. AChE and BChE show differences in their susceptibility to inhibitors, behaviour in situations involving excess substrate, or substrate binding specificity. Unlike, other esterases, both enzymes hydrolyse choline esters at very high speeds. Thus, in our work, the modified Elman’s method was used to investigate the anti-AChE and anti-BChE effects of curcuminoid chalcone.
as §2
The analysis was performed strictly as described by Studzińska-Sroka et al., except that the volume of the tested samples added to the reaction mixture was 0.035 mL.

BChE = BChE (Homo sapiens, UniProt P06276); assay type: biochemical; details: samples 3 mM/dm^3 in DMSO, 0.035 mL; mean ± SEM, n = 3
Chain of BChE (P06276 29-602, species assumed): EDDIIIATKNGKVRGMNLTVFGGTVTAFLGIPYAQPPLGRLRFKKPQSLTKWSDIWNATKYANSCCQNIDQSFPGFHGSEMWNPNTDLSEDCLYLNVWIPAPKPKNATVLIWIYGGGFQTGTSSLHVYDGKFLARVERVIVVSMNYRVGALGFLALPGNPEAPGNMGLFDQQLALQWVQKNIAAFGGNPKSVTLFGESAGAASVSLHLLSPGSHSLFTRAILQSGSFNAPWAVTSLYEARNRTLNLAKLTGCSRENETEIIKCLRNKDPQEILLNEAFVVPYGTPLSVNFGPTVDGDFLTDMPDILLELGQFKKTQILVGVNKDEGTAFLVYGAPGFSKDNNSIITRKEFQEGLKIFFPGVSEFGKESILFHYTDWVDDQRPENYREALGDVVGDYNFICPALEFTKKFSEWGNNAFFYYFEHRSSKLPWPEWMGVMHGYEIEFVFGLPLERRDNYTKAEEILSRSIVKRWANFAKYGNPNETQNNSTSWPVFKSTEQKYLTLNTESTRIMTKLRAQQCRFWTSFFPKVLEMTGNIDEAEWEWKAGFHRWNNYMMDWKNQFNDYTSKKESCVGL

Structure (SMILES)	Reduction of viability of SCC-25 cells, compound combined with US (SCC-25 cells)	Inhibition of viability of FaDu cells, compound combined with US (FaDu cells)	GR Inhibition (%) [1]	GR activity (NADPH consumption rate) [1]	pH of greatest stability of water solutions [2]	HORAC, Gallic Acid Equivalents [3]	Equivalent Concentration of Acetylsalicylic Acid (COX-2) (COX-2)	GPx Inhibition (%) [4]	GPx activity (NADPH consumption rate) [4]	CAT Inhibition (%) (catalase (CAT))	CAT Inhibition of the H2O2 Depletion (catalase (CAT))	AChE % (inhibition) (AChE)	AChE, Equivalent Concentration of Reference Compound Magniflorine (AChE)	AChE, Equivalent Concentration of Reference Compound Rivastigmine (AChE)	BChE % (inhibition) (BChE)	BChE, Equivalent Concentration of Reference Compound Magniflorine (BChE)	BChE, Equivalent Concentration of Reference Compound Rivastigmine (BChE)	COX-2 Inhibition (%) (COX-2)	Reduction of viability of SCC-25 cells, compound alone (SCC-25 cells; MTT, compared to control)
CC(C)Cc1ccc(C(C)C(=O)O)cc1 (centres unmarked) [Compound 4, ibuprofen, reference compound]	no significant difference	no significant difference	19.9 ± 1.1%	747 ± 41 nmol Depleted NADPH/min	5–7	35.7 ± 4.2 µg/mL													
COc1ccc(/C=C/C(=O)c2ccccc2)cc1O [Compound 7, E-3-(3-hydroxy-4-methoxyphenyl)-1-phenylprop-2-en-1-one]			41.8 ± 3.1%	1570 ± 116 nmol Depleted NADPH/min		11.5 ± 1.3 µg/mL	7.7 ± 0.1 mg/mL	32.4 ± 2.8%	64.4 ± 5.5 nmol Depleted NADPH/min	88.1 ± 4.0%	0.22 ± 0.01 mm/dm^3/min	89.8 ± 5.8%	0.34 ± 0.01 µg/mL	0.51 ± 0.03 µg/mL	94.4 ± 4.1%	0.37 ± 0.02 µg/mL	0.27 ± 0.01 µg/mL		
O=C(/C=C/c1ccccc1)c1ccccc1 [Compound 5]			29.1 ± 4.4%	1093 ± 165 nmol Depleted NADPH/min		6.1 ± 2.5 µg/mL		did not inhibit and -		12.5 ±2.4%	0.03 ± 0.01 mm/dm^3/min	65.7 ± 4.7%	0.25 ± 0.02 µg/mL	0.37 ± 0.03 µg/mL	58.1 ± 3.4%	0.23 ± 0.01 µg/mL	0.17 ± 0.01 µg/mL	-	
COc1cc(/C=C/C(=O)c2ccccc2)ccc1O [Compound 1, 3-(4-hydroxy-3-methoxyphenyl)-1-phenylprop-2-en-1-one]	~ 40%	significantly reduced viability	7.6 ± 2.4%	286 ± 90 nmol Depleted NADPH/min		18.7 ± 3.8 µg/mL	6.1 ± 0.1 mg/mL	30.3 ± 3.6%	60.3 ± 7.1 nmol Depleted NADPH/min	78.6 ± 2.8%	0.26 ± 0.01 mm/dm^3/min	80.5 ± 8.2%	0.31 ± 0.03 µg/mL	0.46 ± 0.05 µg/mL	78.0 ± 4.6%	0.30 ± 0.02 µg/mL	0.23 ± 0.01 µg/mL		no significant difference
